Reference: patent US20130116241A1, “NOVEL INHIBITOR COMPOUNDS OF PHOSPHODIESTERASE TYPE 10A” (AbbVie Inc., priority 2011, published 2013)
Counter-ions that a name gives are not always drawn. Like-named read-outs stand apart in the source and are kept apart here.

Molecular target: human PDE10A (UniProt Q9Y233)
Assay: Measurement of PDE activity (recombinant enzyme, HTRF cAMP kit)
Type: biochemical
Conditions: Table 1, substrate 20 nM for PDE10, 60 minutes at 29 C
In short: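 HTRF detection of cAMP left after hydrolysis, expressed as percent of uninhibited control to derive IC50. Reaction: serially diluted inhibitor mixed with recombinant enzyme, started with 20 nM cAMP, 60 min at 29 °C in Tris-HCl pH 7.5 buffer containing MgCl2 and BSA.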

human PDE10A, sequence (Q9Y233 290-1055 limits assumed): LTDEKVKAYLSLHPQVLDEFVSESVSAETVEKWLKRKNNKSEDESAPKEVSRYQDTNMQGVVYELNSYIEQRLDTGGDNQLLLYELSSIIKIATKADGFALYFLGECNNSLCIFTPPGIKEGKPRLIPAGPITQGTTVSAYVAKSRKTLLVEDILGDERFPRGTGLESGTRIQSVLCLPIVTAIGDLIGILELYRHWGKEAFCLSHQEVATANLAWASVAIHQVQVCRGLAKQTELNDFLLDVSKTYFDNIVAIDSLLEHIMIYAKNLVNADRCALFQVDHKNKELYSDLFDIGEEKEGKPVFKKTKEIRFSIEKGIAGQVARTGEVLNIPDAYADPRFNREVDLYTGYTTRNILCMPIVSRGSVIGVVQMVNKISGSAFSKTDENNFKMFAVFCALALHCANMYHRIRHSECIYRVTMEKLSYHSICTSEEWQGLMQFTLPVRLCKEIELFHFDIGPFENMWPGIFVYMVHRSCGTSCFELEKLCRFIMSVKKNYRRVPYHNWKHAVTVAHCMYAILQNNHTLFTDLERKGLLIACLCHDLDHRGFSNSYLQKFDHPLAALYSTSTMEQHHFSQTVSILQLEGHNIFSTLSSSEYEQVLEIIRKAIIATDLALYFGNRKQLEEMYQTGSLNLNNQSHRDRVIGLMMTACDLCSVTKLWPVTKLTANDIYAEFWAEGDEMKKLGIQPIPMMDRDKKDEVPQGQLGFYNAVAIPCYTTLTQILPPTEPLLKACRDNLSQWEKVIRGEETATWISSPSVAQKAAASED

| Compound | IC50 (read-out: IC50) | IC50 |
| --- | --- | --- |
| O=c1c2c(C#Cc3ccncc3)csc2cnn1CCc1ccc2ccccc2n1 [compound 320, hydrochloride] | 200 to 500 nM |  |
| Cc1cnc(CCn2ncc3scc(-c4ccncc4)c3c2=O)c(C)c1 [compound 321, 5-[2-(3,5-dimethylpyridin-2-yl)ethyl]-3-(pyridin-4-yl)thieno[2,3-d]pyridazin-4(5H)-one] | 100 to 200 nM |  |
| O=c1c2c(-c3ccncc3)csc2cnn1CCc1ccc2ccc(F)cc2n1 [compound 322, 5-[2-(7-fluoroquinolin-2-yl)ethyl]-3-(pyridin-4-yl)thieno[2,3-d]pyridazin-4(5H)-one] | 200 to 500 nM |  |
| Cc1cc2ccccc2nc1CCn1ccc2cccc(-c3ccncc3)c2c1=O [compound 327, 2-[2-(3-methylquinolin-2-yl)ethyl]-8-(pyridin-4-yl)isoquinolin-1(2H)-one] | < 100 nM |  |
| O=c1c2c(-c3cc[nH]n3)cccc2cnn1CCc1cn2ccccc2n1 [compound 328, 2-[2-(imidazo[1,2-a]pyridin-2-yl)ethyl]-8-(1H-pyrazol-3-yl)phthalazin-1(2H)-one] | 200 to 500 nM |  |
| O=c1c2c(N3CCOCC3)cccc2cnn1CCc1ccc2ccccc2n1 [compound 329, hydrochloride] | < 100 nM |  |
| O=c1c2c(N3CCCC4(CC3)CNCCO4)cccc2cnn1CCc1cn2ccccc2n1 (centres unmarked) [compound 330, dihydrochloride] | 200 to 500 nM |  |
| O=c1c2c(N3CCC[C@@H](O)C3)cccc2cnn1CCc1cn2ccccc2n1 [compound 332] | 200 to 500 nM |  |
| O=c1c2c(N3CCC[C@H](O)C3)cccc2cnn1CCc1cn2ccccc2n1 [compound 333] | < 100 nM |  |
| O=c1c2c(N3CC4(COC4)C3)cccc2cnn1CCc1cn2ccccc2n1 [compound 334, 2-[2-(imidazo[1,2-a]pyridin-2-yl)ethyl]-8-(2-oxa-6-azaspiro[3.3]hept-6-yl)phthalazin-1(2H)-one] | 100 to 200 nM |  |
| O=c1c2c(C3CCOC3)cccc2cnn1CCc1cn2ccccc2n1 (centres unmarked) [compound 337, 2-[2-(imidazo[1,2-a]pyridin-2-yl)ethyl]-8-(tetrahydrofuran-3-yl)phthalazin-1(2H)-one] | < 100 nM |  |
| O=c1c2c(N3C4CCC3COC4)cccc2cnn1CCc1cn2ccccc2n1 [compound 338, 2-[2-(imidazo[1,2-a]pyridin-2-yl)ethyl]-8-(3-oxa-8-azabicyclo[3.2.1]oct-8-yl)phthalazin-1(2H)-one] |  | < 100 nM |
| O=c1c2c(N3CCC4(COC4)C3)cccc2cnn1CCc1cn2ccccc2n1 [compound 339, 2-[2-(imidazo[1,2-a]pyridin-2-yl)ethyl]-8-(2-oxa-6-azaspiro[3.4]oct-6-yl)phthalazin-1(2H)-one] | < 100 nM |  |
| O=c1c2c(N3CCC(O)CC3)cccc2cnn1CCc1cn2ccccc2n1 [compound 341, 8-(4-hydroxypiperidin-1-yl)-2-[2-(imidazo[1,2-a]pyridin-2-yl)ethyl]phthalazin-1(2H)-one] | < 100 nM |  |
| Cc1ncc(-c2cccc3cnn(CCc4cn5ccccc5n4)c(=O)c23)cn1 [compound 342, 2-[2-(imidazo[1,2-a]pyridin-2-yl)ethyl]-8-(2-methylpyrimidin-5-yl)phthalazin-1(2H)-one] | 100 to 200 nM |  |
| O=c1c2c(-c3cnc(C4CC4)nc3)cccc2cnn1CCc1cn2ccccc2n1 [compound 343, 8-(2-cyclopropylpyrimidin-5-yl)-2-[2-(imidazo[1,2-a]pyridin-2-yl)ethyl]phthalazin-1(2H)-one] | 200 to 500 nM |  |
| O=c1c2c(-c3ccnnc3)cccc2cnn1CCc1cn2ccccc2n1 [compound 344, 2-[2-(imidazo[1,2-a]pyridin-2-yl)ethyl]-8-(pyridazin-4-yl)phthalazin-1(2H)-one] | 100 to 200 nM |  |
| O=c1c2c(-c3cncc(F)c3)cccc2cnn1CCc1cn2ccccc2n1 [compound 345, hydrochloride] | 100 to 200 nM |  |
| COc1ncc(-c2cccc3cnn(CCc4cn5ccccc5n4)c(=O)c23)cn1 [compound 347, 2-[2-(imidazo[1,2-a]pyridin-2-yl)ethyl]-8-(2-methoxypyrimidin-5-yl)phthalazin-1(2H)-one] | 100 to 200 nM |  |
| O=c1c2c(-c3ccnc(C(F)(F)F)c3)cccc2cnn1CCc1cn2ccccc2n1 [compound 348, 2-[2-(imidazo[1,2-a]pyridin-2-yl)ethyl]-8-[2-(trifluoromethyl)pyridin-4-yl]phthalazin-1(2H)-one] | 100 to 200 nM |  |
| O=c1c2c(N3CC4CCC(C3)O4)cccc2cnn1CCc1cn2ccccc2n1 [compound 349, 2-[2-(imidazo[1,2-a]pyridin-2-yl)ethyl]-8-(8-oxa-3-azabicyclo[3.2.1]oct-3-yl)phthalazin-1(2H)-one] | < 100 nM |  |
| O=c1c2c(C3CCNCC3)cccc2cnn1CCc1cn2ccccc2n1 [compound 354, hydrochloride] | < 100 nM |  |
| O=c1c2c(C3CCOCC3)cccc2cnn1CCc1cn2ccccc2n1 [compound 355, 2-[2-(imidazo[1,2-a]pyridin-2-yl)ethyl]-8-(tetrahydro-2H-pyran-4-yl)phthalazin-1(2H)-one] | < 100 nM |  |
| O=c1c2c(-c3ccco3)cccc2cnn1CCc1cn2ccccc2n1 [compound 358, hydrochloride] | 100 to 200 nM |  |

| Compound | IC50 (read-out: IC50) | IC50 |
| --- | --- | --- |
| Cn1cc(-c2cccc3cnn(CCc4cn5ccccc5n4)c(=O)c23)cn1 [compound 359, hydrochloride] | < 100 nM |  |
| O=c1c2c(C3CCNCC3)cccc2cnn1CCc1cn2c(n1)CCCC2 [compound 365, hydrochloride] | < 100 nM |  |
| NCC1CC(Cl)CN1c1cccc2cnn(CCc3cn4ccccc4n3)c(=O)c12 (centres unmarked) [compound 366, trifluoroacetate] | < 100 nM |  |
| O=c1c2c(-c3ccncc3)cccc2c(-c2ccncc2)nn1CCc1cn2ccccc2n1 [compound 367, 2-[2-(imidazo[1,2-a]pyridin-2-yl)ethyl]-4,8-di(pyridin-4-yl)phthalazin-1(2H)-one] | < 100 nM |  |
| O=c1c2c(-c3ccncc3)cccc2c(Br)nn1CCc1cn2ccccc2n1 [compound 370, 4-bromo-2-[2-(imidazo[1,2-a]pyridin-2-yl)ethyl]-8-(pyridin-4-yl)phthalazin-1(2H)-one] | < 100 nM |  |
| O=c1c2c(N3CC4CCOC4C3)cccc2cnn1CCc1cn2ccccc2n1 (centres unmarked) [compound 374, hydrochloride] | 200 to 500 nM |  |
| O=c1c2c(C3=CCNCC3)cccc2cnn1CCc1cn2ccccc2n1 [compound 375, hydrochloride] |  | < 100 nM |
| O=c1c2c(N[C@H]3CCOC3)cccc2cnn1CCc1cn2ccccc2n1 [compound 376, 2-[2-(imidazo[1,2-a]pyridin-2-yl)ethyl]-8-[(3S)-tetrahydrofuran-3-ylamino]phthalazin-1(2H)-one] | < 100 nM |  |
| O=c1c2c(N[C@@H]3CCOC3)cccc2cnn1CCc1cn2ccccc2n1 [compound 377, 2-[2-(imidazo[1,2-a]pyridin-2-yl)ethyl]-8-[(3R)-tetrahydrofuran-3-ylamino]phthalazin-1(2H)-one] | < 100 nM |  |
| O=c1c2c(OCC3COC(CO)CO3)cccc2cnn1CCc1cn2ccccc2n1 (centres unmarked) [compound 378, 8-{[5-(hydroxymethyl)-1,4-dioxan-2-yl]methoxy}-2-[2-(imidazo[1,2-a]pyridin-2-yl)ethyl]phthalazin-1(2H)-one] | 200 to 500 nM |  |
| O=c1c2c(OCc3ccncc3)cccc2cnn1CCc1cn2ccccc2n1 [compound 380, 2-[2-(imidazo[1,2-a]pyridin-2-yl)ethyl]-8-(pyridin-4-ylmethoxy)phthalazin-1(2H)-one] | 100 to 200 nM |  |
| O=c1c2c(Oc3cccnc3)cccc2cnn1CCc1cn2ccccc2n1 [compound 382, 2-[2-(imidazo[1,2-a]pyridin-2-yl)ethyl]-8-(pyridin-3-yloxy)phthalazin-1(2H)-one] | < 100 nM |  |
| O=c1c2c(NCC3COC3)cccc2cnn1CCc1cn2ccccc2n1 [compound 383, 2-[2-(imidazo[1,2-a]pyridin-2-yl)ethyl]-8-[(oxetan-3-ylmethyl)amino]phthalazin-1(2H)-one] | < 100 nM |  |
| O=c1c2c(NC3CCOCC3)cccc2cnn1CCc1cn2ccccc2n1 [compound 384, 2-[2-(imidazo[1,2-a]pyridin-2-yl)ethyl]-8-(tetrahydro-2H-pyran-4-ylamino)phthalazin-1(2H)-one] | 100 to 200 nM |  |
| CN1CC(Nc2cccc3cnn(CCc4cn5ccccc5n4)c(=O)c23)C1 [compound 385, 2-[2-(imidazo[1,2-a]pyridin-2-yl)ethyl]-8-[(1-methylazetidin-3-yl)amino]phthalazin-1(2H)-one] | 200 to 500 nM |  |
| CN(c1cccc2cnn(CCc3cn4ccccc4n3)c(=O)c12)C1COC1 [compound 387, 2-[2-(imidazo[1,2-a]pyridin-2-yl)ethyl]-8-[methyl(oxetan-3-yl)amino]phthalazin-1(2H)-one] | < 100 nM |  |
| O=c1c2c(NC3CCNCC3)cccc2cnn1CCc1cn2ccccc2n1 [compound 388, dihydrochloride] | < 100 nM |  |
| CC(=O)N1CCCC(Nc2cccc3cnn(CCc4cn5ccccc5n4)c(=O)c23)C1 (centres unmarked) [compound 389, hydrochloride] | 100 to 200 nM |  |
| CC(=O)N1CCC(Nc2cccc3cnn(CCc4cn5ccccc5n4)c(=O)c23)CC1 [compound 390, 8-[(1-acetylpiperidin-4-yl)amino]-2-[2-(imidazo[1,2-a]pyridin-2-yl)ethyl]phthalazin-1(2H)-one] | 200 to 500 nM |  |
| O=c1c2c(NC3CCOC3)cccc2cnn1CCc1cn2ccccc2n1 (centres unmarked) [compound 391, 2-[2-(imidazo[1,2-a]pyridin-2-yl)ethyl]-8-(tetrahydrofuran-3-ylamino)phthalazin-1(2H)-one] | < 100 nM |  |
| O=c1c2c(NC3CCCOC3)cccc2cnn1CCc1cn2ccccc2n1 (centres unmarked) [compound 392, hydrochloride] | < 100 nM |  |
| O=c1c2c(NC3CCCNC3)cccc2cnn1CCc1cn2ccccc2n1 (centres unmarked) [compound 393, dihydrochloride] | < 100 nM |  |
| CN(CC1(C)COC1)c1cccc2cnn(CCc3cn4ccccc4n3)c(=O)c12 [compound 394, 2-[2-(imidazo[1,2-a]pyridin-2-yl)ethyl]-8-{methyl[(3-methyloxetan-3-yl)methyl]amino}phthalazin-1(2H)-one] | 200 to 500 nM |  |
